How the values were obtained:
Format in all cases: functional
OVCAR-3 = assay: Cytotoxicity against Homo sapiens (human) OVCAR3 cells assessed as growth inhibition at 10 uM after 48 hr by coulter counter analysis; conditions: OVCAR-3, 48 h, read-out: GI
RPMI-8226 = assay: Cytotoxicity against Homo sapiens (human) RPMI8226 cells assessed as growth inhibition at 10 uM after 48 hr by coulter counter analysis; conditions: RPMI-8226, 48 h, read-out: GI
M14 = assay: Cytotoxicity against Homo sapiens (human) M14 cells assessed as growth inhibition at 10 uM after 48 hr by coulter counter analysis; conditions: M14, 48 h, read-out: GI
COLO 205 = assay: Cytotoxicity against Homo sapiens (human) COLO205 cells assessed as growth inhibition at 10 uM after 48 hr by coulter counter analysis; conditions: COLO 205, 48 h, read-out: GI
SF-295 = assay: Cytotoxicity against Homo sapiens (human) SF295 cells assessed as growth inhibition at 10 uM after 48 hr by coulter counter analysis; conditions: SF-295, 48 h, read-out: GI
MDA-MB-468 = assay: Cytotoxicity against Homo sapiens (human) MDA-MB-468 cells assessed as growth inhibition at 10 uM after 48 hr by coulter counter analysis; conditions: MDA-MB-468, 48 h, read-out: GI
SN12C = assay: Cytotoxicity against Homo sapiens (human) SN12C cells assessed as growth inhibition at 10 uM after 48 hr by coulter counter analysis; conditions: read-out: GI
MDA-MB-435 = assay: Cytotoxicity against Homo sapiens (human) MDA-MB-435 cells assessed as growth inhibition at 10 uM after 48 hr by coulter counter analysis; conditions: MDA-MB-435, 48 h, read-out: GI
SK-OV-3 = assay: Cytotoxicity against Homo sapiens (human) SKOV3 cells assessed as growth inhibition at 10 uM after 48 hr by coulter counter analysis; conditions: SK-OV-3, 48 h, read-out: GI
HOP-92 = assay: Cytotoxicity against Homo sapiens (human) HOP92 cells assessed as growth inhibition at 10 uM after 48 hr by coulter counter analysis; conditions: HOP-92, 48 h, read-out: GI
OVCAR-5 = assay: Cytotoxicity against Homo sapiens (human) OVCAR5 cells assessed as growth inhibition at 10 uM after 48 hr by coulter counter analysis; conditions: OVCAR-5, 48 h, read-out: GI
NCI-H226 = assay: Cytotoxicity against Homo sapiens (human) NCI-H226 cells assessed as growth inhibition at 10 uM after 48 hr by coulter counter analysis; conditions: NCI-H226, 48 h, read-out: GI
ACHN = assay: Cytotoxicity against Homo sapiens (human) ACHN cells assessed as growth inhibition at 10 uM after 48 hr by coulter counter analysis; conditions: read-out: GI
BT-549 = assay: Cytotoxicity against Homo sapiens (human) BT549 cells assessed as growth inhibition at 10 uM after 48 hr by coulter counter analysis; conditions: BT-549, 48 h, read-out: GI
SK-MEL-2 = assay: Cytotoxicity against Homo sapiens (human) SK-MEL-2 cells assessed as growth inhibition at 10 uM after 48 hr by coulter counter analysis; conditions: SK-MEL-2, 48 h, read-out: GI
MOLT-4 = assay: Cytotoxicity against Homo sapiens (human) MOLT4 cells assessed as growth inhibition at 10 uM after 48 hr by coulter counter analysis; conditions: MOLT-4, 48 h, read-out: GI
MCF7 = assay: Cytotoxicity against Homo sapiens (human) MCF7 cells assessed as growth inhibition at 10 uM after 48 hr by coulter counter analysis; conditions: MCF7, 48 h, read-out: GI
HCT-15 = assay: Cytotoxicity against Homo sapiens (human) HCT15 cells assessed as growth inhibition at 10 uM after 48 hr by coulter counter analysis; conditions: HCT-15, 48 h, read-out: GI
PC-3 = assay: Cytotoxicity against Homo sapiens (human) PC3 cells assessed as growth inhibition at 10 uM after 48 hr by coulter counter analysis; conditions: PC-3, 48 h, read-out: GI
SNB-75 = assay: Cytotoxicity against Homo sapiens (human) SNB75 cells assessed as growth inhibition at 10 uM after 48 hr by coulter counter analysis; conditions: SNB-75, 48 h, read-out: GI
A498 = assay: Cytotoxicity against Homo sapiens (human) A498 cells assessed as growth inhibition at 10 uM after 48 hr by coulter counter analysis; conditions: A498, 48 h, read-out: GI
EKVX = assay: Cytotoxicity against Homo sapiens (human) EKVX cells assessed as growth inhibition at 10 uM after 48 hr by coulter counter analysis; conditions: read-out: GI
T47D = assay: Cytotoxicity against Homo sapiens (human) T47D cells assessed as growth inhibition at 10 uM after 48 hr by coulter counter analysis; conditions: read-out: GI
TK-10 = assay: Cytotoxicity against Homo sapiens (human) TK10 cells assessed as growth inhibition at 10 uM after 48 hr by coulter counter analysis; conditions: TK-10, 48 h, read-out: GI
HT-29 = assay: Cytotoxicity against Homo sapiens (human) HT-29 cells assessed as growth inhibition at 10 uM after 48 hr by coulter counter analysis; conditions: HT-29, 48 h, read-out: GI
SF-539 = assay: Cytotoxicity against Homo sapiens (human) SF539 cells assessed as growth inhibition at 10 uM after 48 hr by coulter counter analysis; conditions: SF-539, 48 h, read-out: GI
786-0 = assay: Cytotoxicity against Homo sapiens (human) 786-0 cells assessed as growth inhibition at 10 uM after 48 hr by coulter counter analysis; conditions: 786-0, 48 h, read-out: GI
HL-60(TB) = assay: Cytotoxicity against Homo sapiens (human) HL-60(TB) cells assessed as growth inhibition at 10 uM after 48 hr by coulter counter analysis; conditions: HL-60, 48 h, read-out: GI
SF-268 = assay: Cytotoxicity against Homo sapiens (human) SF268 cells assessed as growth inhibition at 10 uM after 48 hr by coulter counter analysis; conditions: SF-268, 48 h, read-out: GI
SK-MEL-5 = assay: Cytotoxicity against Homo sapiens (human) SK-MEL-5 cells assessed as growth inhibition at 10 uM after 48 hr by coulter counter analysis; conditions: SK-MEL-5, 48 h, read-out: GI
NCI-H23 = assay: Cytotoxicity against Homo sapiens (human) NCI-H23 cells assessed as growth inhibition at 10 uM after 48 hr by coulter counter analysis; conditions: NCI-H23, 48 h, read-out: GI
DU-145 = assay: Cytotoxicity against Homo sapiens (human) DU145 cells assessed as growth inhibition at 10 uM after 48 hr by coulter counter analysis; conditions: DU-145, 48 h, read-out: GI
HCC 2998 = assay: Cytotoxicity against Homo sapiens (human) HCC2998 cells assessed as growth inhibition at 10 uM after 48 hr by coulter counter analysis; conditions: HCC 2998, 48 h, read-out: GI
IGROV-1 = assay: Cytotoxicity against Homo sapiens (human) IGROV1 cells assessed as growth inhibition at 10 uM after 48 hr by coulter counter analysis; conditions: IGROV-1, 48 h, read-out: GI

| SMILES | inhibition of growth at 10 µM (OVCAR-3) [%] | inhibition of growth at 10 µM (RPMI-8226) [%] | inhibition of growth at 10 µM (M14) [%] | inhibition of growth at 10 µM (COLO 205) [%] | inhibition of growth at 10 µM (SF-295) [%] | inhibition of growth at 10 µM (MDA-MB-468) [%] | inhibition of growth at 10 µM (SN12C) [%] | inhibition of growth at 10 µM (MDA-MB-435) [%] | inhibition of growth at 10 µM (SK-OV-3) [%] | inhibition of growth at 10 µM (HOP-92) [%] | inhibition of growth at 10 µM (OVCAR-5) [%] | inhibition of growth at 10 µM (NCI-H226) [%] | inhibition of growth at 10 µM (ACHN) [%] | inhibition of growth at 10 µM (BT-549) [%] | inhibition of growth at 10 µM (SK-MEL-2) [%] | inhibition of growth at 10 µM (MOLT-4) [%] | inhibition of growth at 10 µM (MCF7) [%] | inhibition of growth at 10 µM (HCT-15) [%] | inhibition of growth at 10 µM (PC-3) [%] | inhibition of growth at 10 µM (SNB-75) [%] | further results |
| --- | --- | --- | --- | --- | --- | --- | --- | --- | --- | --- | --- | --- | --- | --- | --- | --- | --- | --- | --- | --- | --- |
| O=c1[nH]nnc2c1C(c1ccc(Cl)cc1)C1=C(CCCC1)N2 (stereo unspecified) | < 10 | < 10 | < 10 | 13.5 | < 10 | 13.3 | < 10 | < 10 | < 10 | < 10 | < 10 | 10.3 | < 10 | < 10 | < 10 | < 10 | < 10 | < 10 | 10.2 | < 10 | inhibition of growth at 10 µM (A498): 28.3%; inhibition of growth at 10 µM (EKVX): 10.9%; inhibition of growth at 10 µM (T47D): 13.3%; inhibition of growth at 10 µM (TK-10): < 10%; inhibition of growth at 10 µM (HT-29): < 10%; inhibition of growth at 10 µM (SF-539): < 10%; inhibition of growth at 10 µM (786-0): < 10%; inhibition of growth at 10 µM (HL-60(TB)): < 10%; inhibition of growth at 10 µM (SF-268): < 10%; inhibition of growth at 10 µM (SK-MEL-5): 13%; inhibition of growth at 10 µM (NCI-H23): 10.4%; inhibition of growth at 10 µM (DU-145): < 10%; inhibition of growth at 10 µM (HCC 2998): < 10%; inhibition of growth at 10 µM (IGROV-1): < 10% |
| COc1ccc(C2C3=C(CCCC3)Nc3nn[nH]c(=O)c32)cc1OC (stereo unspecified) | < 10 | < 10 | < 10 | 15.9 | < 10 | 21.1 | 10.8 | < 10 | < 10 | 13.3 | 12.6 | 15.9 | 16 | < 10 | < 10 | < 10 | < 10 | < 10 | 13.4 | 28.3 | inhibition of growth at 10 µM (A498): 13.2%; inhibition of growth at 10 µM (EKVX): < 10%; inhibition of growth at 10 µM (T47D): 21.1%; inhibition of growth at 10 µM (TK-10): < 10%; inhibition of growth at 10 µM (HT-29): < 10%; inhibition of growth at 10 µM (SF-539): < 10%; inhibition of growth at 10 µM (786-0): < 10%; inhibition of growth at 10 µM (HL-60(TB)): < 10%; inhibition of growth at 10 µM (SF-268): < 10%; inhibition of growth at 10 µM (SK-MEL-5): 10.9%; inhibition of growth at 10 µM (NCI-H23): < 10%; inhibition of growth at 10 µM (DU-145): < 10%; inhibition of growth at 10 µM (HCC 2998): < 10%; inhibition of growth at 10 µM (IGROV-1): < 10% |
| COc1ccc(C2C3=C(CCCC3)Nc3[nH]c(=S)nc(NC(N)=S)c32)cc1OC (stereo unspecified) | < 10 | < 10 | < 10 | 12.8 | 14.4 | 14.2 | < 10 | 70.7 | 18.6 | 25.8 | < 10 | 18.6 | 11.4 | < 10 | 12.6 | < 10 | < 10 | 10.2 | 23.5 | 20.3 | inhibition of growth at 10 µM (A498): < 10%; inhibition of growth at 10 µM (EKVX): < 10%; inhibition of growth at 10 µM (T47D): 27.5%; inhibition of growth at 10 µM (TK-10): < 10%; inhibition of growth at 10 µM (HT-29): < 10%; inhibition of growth at 10 µM (SF-539): 21.1%; inhibition of growth at 10 µM (786-0): < 10%; inhibition of growth at 10 µM (HL-60(TB)): < 10%; inhibition of growth at 10 µM (SF-268): < 10%; inhibition of growth at 10 µM (SK-MEL-5): 25.5%; inhibition of growth at 10 µM (NCI-H23): 15.3%; inhibition of growth at 10 µM (DU-145): < 10%; inhibition of growth at 10 µM (HCC 2998): < 10%; inhibition of growth at 10 µM (IGROV-1): < 10% |
| N#CCc1nc2c(c(=O)[nH]1)C(c1ccc(Cl)cc1)C1=C(CCCC1)N2 (stereo unspecified) | < 10 | < 10 | < 10 | 10.4 | < 10 | < 10 | 15.5 | < 10 | < 10 | 11.2 | < 10 | < 10 | 13.8 | < 10 | 10 | < 10 | < 10 | < 10 | < 10 | 20.4 | inhibition of growth at 10 µM (A498): 13%; inhibition of growth at 10 µM (EKVX): 13%; inhibition of growth at 10 µM (T47D): 14.1%; inhibition of growth at 10 µM (TK-10): < 10%; inhibition of growth at 10 µM (HT-29): < 10%; inhibition of growth at 10 µM (SF-539): < 10%; inhibition of growth at 10 µM (786-0): < 10%; inhibition of growth at 10 µM (HL-60(TB)): < 10%; inhibition of growth at 10 µM (SF-268): < 10%; inhibition of growth at 10 µM (SK-MEL-5): < 10%; inhibition of growth at 10 µM (NCI-H23): 12.1%; inhibition of growth at 10 µM (DU-145): < 10%; inhibition of growth at 10 µM (HCC 2998): < 10%; inhibition of growth at 10 µM (IGROV-1): < 10% |
